This note sets out measurements from paper PMC9911596 (Nature Communications, 2023).

This assay deals with T1, Vtc1/Vtc3/Vtc4 complex (VTC complex) (Saccharomyces cerevisiae, UniProt P47075+Q02725).
T1 construct: full-length subunits co-expressed in Expi293F; Vtc1 C-terminal HA, Vtc3 N-terminal 3xFlag, Vtc4 C-terminal 2xStrep; detergent-purified; 3:1:1 pentamer; with Vacuolar transporter chaperone complex subunit 1
T1 sequence (P47075 1-721): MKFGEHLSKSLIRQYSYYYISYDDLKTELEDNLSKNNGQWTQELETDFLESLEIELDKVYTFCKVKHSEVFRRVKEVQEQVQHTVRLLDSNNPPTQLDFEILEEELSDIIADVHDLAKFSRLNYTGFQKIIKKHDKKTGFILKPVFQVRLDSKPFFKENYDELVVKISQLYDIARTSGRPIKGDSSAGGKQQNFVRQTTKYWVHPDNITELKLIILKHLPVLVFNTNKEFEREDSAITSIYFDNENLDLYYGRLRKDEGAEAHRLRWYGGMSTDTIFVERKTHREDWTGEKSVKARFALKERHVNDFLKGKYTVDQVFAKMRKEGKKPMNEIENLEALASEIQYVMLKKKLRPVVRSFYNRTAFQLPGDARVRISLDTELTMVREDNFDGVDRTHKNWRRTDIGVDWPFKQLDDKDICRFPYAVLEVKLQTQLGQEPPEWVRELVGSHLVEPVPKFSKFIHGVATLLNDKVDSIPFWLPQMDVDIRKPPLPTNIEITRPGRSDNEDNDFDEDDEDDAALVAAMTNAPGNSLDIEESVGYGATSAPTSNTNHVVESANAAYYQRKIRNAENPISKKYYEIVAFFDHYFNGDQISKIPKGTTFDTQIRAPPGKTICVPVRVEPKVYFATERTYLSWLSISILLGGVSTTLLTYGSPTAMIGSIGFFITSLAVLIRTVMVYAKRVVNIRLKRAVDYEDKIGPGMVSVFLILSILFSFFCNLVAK
T1 sequence (Q02725 1-835): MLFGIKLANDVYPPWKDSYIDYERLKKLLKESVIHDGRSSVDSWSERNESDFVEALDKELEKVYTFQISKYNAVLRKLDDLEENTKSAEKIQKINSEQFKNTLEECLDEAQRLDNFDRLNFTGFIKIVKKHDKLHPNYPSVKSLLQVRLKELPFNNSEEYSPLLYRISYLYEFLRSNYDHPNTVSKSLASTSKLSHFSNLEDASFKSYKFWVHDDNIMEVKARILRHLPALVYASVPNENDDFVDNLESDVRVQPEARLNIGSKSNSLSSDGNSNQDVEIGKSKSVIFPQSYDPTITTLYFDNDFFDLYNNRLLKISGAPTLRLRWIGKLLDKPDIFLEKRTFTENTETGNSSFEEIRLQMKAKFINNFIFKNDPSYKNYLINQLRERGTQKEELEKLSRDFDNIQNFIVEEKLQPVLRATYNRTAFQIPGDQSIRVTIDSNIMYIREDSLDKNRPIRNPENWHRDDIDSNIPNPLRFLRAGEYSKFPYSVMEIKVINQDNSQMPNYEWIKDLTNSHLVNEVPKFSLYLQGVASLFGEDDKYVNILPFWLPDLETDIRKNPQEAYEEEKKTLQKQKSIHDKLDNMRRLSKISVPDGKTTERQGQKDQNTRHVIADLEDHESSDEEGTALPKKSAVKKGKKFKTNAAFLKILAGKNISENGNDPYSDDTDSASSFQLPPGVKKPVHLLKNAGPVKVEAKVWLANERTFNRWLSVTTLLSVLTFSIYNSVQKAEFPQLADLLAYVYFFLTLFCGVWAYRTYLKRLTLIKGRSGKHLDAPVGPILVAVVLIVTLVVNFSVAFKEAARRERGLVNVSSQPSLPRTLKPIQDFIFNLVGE
T1 sequence (P40046 22-129 partner): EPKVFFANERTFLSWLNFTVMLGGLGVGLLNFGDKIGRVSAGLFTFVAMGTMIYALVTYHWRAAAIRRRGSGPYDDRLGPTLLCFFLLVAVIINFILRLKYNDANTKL
The experiment in a line: polyP synthesis, TBE-PAGE; smFRET. The following applies: 1 mM InsP6; activator; deletion of Vtc1 N-terminus. It counts as biochemical.

Take `O=P(O)(O)O[C@H]1[C@H](OP(=O)(O)O)[C@@H](OP(=O)(O)O)[C@H](OP(=O)(O)O)[C@@H](OP(=O)(O)O)[C@H]1OP(=O)(O)O` [InsP6]: the “polyP synthesis, TBE-PAGE; smFRET” value is given as “mutant VTC complex that can no longer be activated by the InsP6 stimulus”.
